Non-standard residues stand in square brackets, D forms with d. Residues, ends and D or L forms follow the SMILES beside them. dGla = N[C@H](CC(C(=O)O)C(=O)O)C(=O)O; Cha = N[C@@H](CC1CCCCC1)C(=O)O
How the values were obtained:
NS3 [1] = biological target: T1, NS3 (Hepatitis C virus, UniProt A3EZJ3); experiment: Inhibition of HCV genotype-3a full length NS3 protease preincubated for 10 mins followed by Ac-DED(Edans)EEAbuj-[COO]ASK(Dabcyl)-NH2 addition in presence of co-factor 2K-NS4A by fluorescence assay; set-up: species or system Hepatitis C virus subtype 3a
T1 sequence (A3EZJ3 whole entry): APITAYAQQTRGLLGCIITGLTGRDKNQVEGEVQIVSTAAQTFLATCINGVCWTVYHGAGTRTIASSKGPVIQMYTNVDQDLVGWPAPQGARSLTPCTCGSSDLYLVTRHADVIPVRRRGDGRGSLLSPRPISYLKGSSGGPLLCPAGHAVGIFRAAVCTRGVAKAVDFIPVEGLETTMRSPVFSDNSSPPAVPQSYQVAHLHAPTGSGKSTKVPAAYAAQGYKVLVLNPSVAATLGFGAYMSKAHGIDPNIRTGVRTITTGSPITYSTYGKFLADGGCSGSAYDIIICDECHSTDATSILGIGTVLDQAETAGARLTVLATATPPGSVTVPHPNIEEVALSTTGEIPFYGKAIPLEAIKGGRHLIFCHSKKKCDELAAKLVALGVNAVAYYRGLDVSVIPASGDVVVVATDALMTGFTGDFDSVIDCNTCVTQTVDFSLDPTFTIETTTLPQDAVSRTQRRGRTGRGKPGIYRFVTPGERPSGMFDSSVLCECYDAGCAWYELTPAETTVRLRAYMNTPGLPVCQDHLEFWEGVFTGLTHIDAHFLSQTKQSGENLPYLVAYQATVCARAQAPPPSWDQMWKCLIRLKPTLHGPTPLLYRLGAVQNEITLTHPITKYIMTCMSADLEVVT

NS3 [2] = biological target: T1, NS3; experiment: Inhibition of HCV genotype-1a full length NS3 protease preincubated for 10 mins followed by Ac-DED(Edans)EEAbuj-[COO]ASK(Dabcyl)-NH2 addition in presence of co-factor 2K-NS4A by fluorescence assay; set-up: species or system Hepatitis C virus subtype 1a
NS3 [3] = biological target: NS3 (Hepatitis C virus, UniProt A3EZJ3, R155K); experiment: Inhibition of HCV genotype-1a full length NS3 protease R155K mutant preincubated for 10 mins followed by Ac-DED(Edans)EEAbuj-[COO]ASK(Dabcyl)-NH2 addition in presence of co-factor 2K-NS4A by fluorescence assay; set-up: species or system Hepatitis C virus subtype 1a
Chain of NS3 (Hepatitis C virus, UniProt A3EZJ3, R155K) (A3EZJ3 entry or part of it R155K): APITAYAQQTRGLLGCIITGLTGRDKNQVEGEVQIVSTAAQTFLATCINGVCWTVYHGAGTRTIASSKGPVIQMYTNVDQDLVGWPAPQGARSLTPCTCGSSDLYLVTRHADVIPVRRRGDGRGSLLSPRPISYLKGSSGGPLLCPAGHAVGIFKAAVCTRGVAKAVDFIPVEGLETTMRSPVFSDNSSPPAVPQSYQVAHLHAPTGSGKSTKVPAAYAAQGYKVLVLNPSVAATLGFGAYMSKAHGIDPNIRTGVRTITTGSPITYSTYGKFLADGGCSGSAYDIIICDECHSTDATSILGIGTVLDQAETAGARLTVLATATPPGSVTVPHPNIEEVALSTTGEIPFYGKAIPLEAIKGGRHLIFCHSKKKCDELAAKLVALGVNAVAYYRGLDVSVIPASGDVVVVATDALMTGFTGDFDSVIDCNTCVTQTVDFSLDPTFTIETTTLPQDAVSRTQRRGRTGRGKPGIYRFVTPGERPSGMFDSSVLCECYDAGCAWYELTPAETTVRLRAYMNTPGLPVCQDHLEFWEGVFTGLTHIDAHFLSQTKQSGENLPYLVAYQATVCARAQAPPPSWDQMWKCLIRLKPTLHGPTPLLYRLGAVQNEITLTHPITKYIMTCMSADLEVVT

[4] = Cytotoxicity against human HuH7 cell; format: cell-based, Huh-7; conditions: HuH7 cells
Hepatitis C virus = experiment: Antiviral activity against HCV genotype 1b infected in human HuH7 cells; format: functional, organism-based, Hepacivirus hominis; conditions: Huh-7
NS3 [5] = biological target: T1, NS3; experiment: Inhibition of HCV genotype-1a NS3 protease; set-up: species or system Hepatitis C virus subtype 1a

Row | Ki (NS3 [1]) | Structure (SMILES) | Ki (NS3 [2]) | further results
1 | 68 nM | CC(C)(C)NC(=O)Nc1nc(Cl)c(CCC2CCCCC2)n(CC(=O)NC2(C(=O)NS(=O)(=O)c3ccc(C(F)(F)F)cc3)CC(OCc3ccccc3)C2)c1=O (stereo not given) |  | 
2 | 70 nM | CC(C)(C)NC(=O)Nc1nc(Cl)c(CCC2CCCCC2)n(CC(=O)Nc2ccccc2C(=O)O)c1=O |  | 
3 | 170 nM | CC(C)(C)NC(=O)Nc1nc(Cl)c(Cc2cccc3ccccc23)n(CC(=O)Nc2ccccc2S(=O)(=O)NC(=O)c2ccc(C(F)(F)F)cc2)c1=O |  | 
4 | 87 nM | CC(C)(C)NC(=O)Nc1nc(Cl)c(CCC2CCCCC2)n(CC(=O)Nc2cc(-c3cncnc3)ccc2C(=O)NS(=O)(=O)c2ccc(C(F)(F)F)cc2)c1=O |  | 
5 |  | O=C(Cn1c(Cc2ccccc2)c(Cl)nc(NNC(=O)c2ccccc2)c1=O)Nc1ccccc1C(=O)NS(=O)(=O)c1ccc(C(F)(F)F)cc1 | 1650 nM | 
6 |  | CC(C)(C)[C@@H](CNS(=O)(=O)c1cccnc1)NC(=O)Nc1nc(Cl)c(Cc2ccccc2)n(CC(=O)Nc2cc(F)ccc2C(=O)NS(=O)(=O)c2ccc(C(F)(F)F)cc2)c1=O | 190 nM | Ki (NS3 [3]): 40 nM
7 |  | CC(C)(C)N1CCN(c2nc(Cl)c(Cc3ccccc3)n(CC(=O)Nc3ccccc3C(=O)NS(=O)(=O)c3ccc(C(F)(F)F)cc3)c2=O)C1=O | 380 nM | 
8 |  | CC[C@H](C)[C@H](NC(=O)[C@H](CC(C)C)NC(=O)[C@@H](CC(C(=O)O)C(=O)O)NC(=O)[C@H](CC(=O)O)NC(C)=O)C(=O)N[C@@H](CC1CCCCC1)C(=O)N[C@@H](CS)C(=O)O (Ac-D[dGla]LI[Cha]C-OH) | 9 nM | 
9 | 20 nM | COc1ccc2c(O[C@@H]3C[C@H]4C(=O)N[C@]5(C(=O)O)C[C@H]5/C=C\CCCCC[C@H](NC(=O)OC5CCCC5)C(=O)N4C3)cc(-c3csc(NC(C)C)n3)nc2c1 [CILUPREVIR] |  | Ki (NS3 [5]): 0.089 nM; CC50 [4]: > 100 nM

Row | Structure (SMILES) | Ki (NS3 [1]) | Ki (NS3 [2]) | further results
10 | CC1(C)CC(=O)N(C[C@@H](NC(=O)Nc2nc(Cl)c(CCC3CCCCC3)n(CC(=O)Nc3cc(F)ccc3C(=O)NS(=O)(=O)c3ccc(C(F)(F)F)cc3)c2=O)C(C)(C)C)C(=O)C1 | 5.4 nM | 30 nM | CC50 [4]: 26000 nM; EC50 (Hepatitis C virus): 7100 nM; Ki (NS3 [3]): 2 nM
11 | CC1(C)CC(=O)N(C[C@@H](NC(=O)Nc2nc(Cl)c(Cc3ccccc3)n(CC(=O)Nc3cc(F)ccc3C(=O)NS(=O)(=O)c3ccc(C(F)(F)F)cc3)c2=O)C(C)(C)C)C(=O)C1 | 135 nM | 160 nM | Ki (NS3 [3]): 30 nM
